ChEMBL document CHEMBL1144145, “Sesquiterpene polyol esters from the leaves of maytenus macrocarpa” (J Nat Prod, 1999)

What was measured:
Format in all cases: functional, cell-based
[1] = Cytotoxicity against human MEL28 cells by […]; conditions: SK-MEL-28
[2] = test system: A549; experiment: Cytotoxicity against human A549 cells by […]
[3] = test system: P388; experiment: Cytotoxicity against mouse P388 cells by […]
[4] = test system: HT-29; experiment: Cytotoxicity against human HT-29 cells by […]

Measured: IC50

CC(=O)OC[C@@]12[C@@H](OC(=O)c3ccccc3)CC[C@](C)(O)[C@]13OC(C)(C)[C@H]([C@H](OC(C)=O)[C@H]2OC(=O)c1ccccc1)[C@H]3OC(C)=O
> 25 µg/mL: [1] | [2] | [3] | [4]
